According to patent publication US20230227426A1 (Akebia Therapeutics, Inc., priority 2020, published 2023):

Key:
Assay type in all cases: biochemical
full-length human PHD1 = target: T1, full-length human PHD1 (Homo sapiens, UniProt Q96KS0); test: TR-FRET assay for PHD enzymes, PHD1
T1 construct: FLAG (N); purchased Active Motif (Carlsbad, Calif., USA) 81064; host or cells: baculovirus expression system
Text: (§1) The resulting proximity of the donor fluorophore complex, monoclonal antibody anti-6His-Terbium (Tb)-cryptate Gold, bound to the His-tagged VHL protein, EloB, EloC complex (His-VBC) and the acceptor fluorophore, SA-D2 complex, bound to HIF-1α-hydroxyproline results in a fluorescence resonance energy transfer signal that can be detected and quantified
Recombinant human PHD1 protein (catalog #81064, Lot #24717001) was purchased from Active Motif (Carlsbad, Calif., USA). PHD1 was expressed in a baculovirus expression system as the full-length protein (NCBI accession number NP_542770.2) with an N-terminal FLAG tag (molecular weight 44.9 kDa). Purity (>90%) was assessed by SDS-PAGE.
(§2) For this, 5 μL PHD inhibitor compound was serially diluted with dilution buffer (50 mM HEPES [4-(2-hydroxyethyl)-1-piperazineethanesulfonic acid] pH 7.5, 50 mM sodium chloride [NaCl], 0.01% Tween-20, 0.01% purified bovine serum albumin [BSA]) and mixed with 5 μL PHD enzyme mix prepared as a 4× concentrate in the dilution buffer containing PHD enzyme (60 nM PHD1, 20 nM PHD2, 140 nM PHD3), 40 μM ferrous ammonium sulfate (FAS), 4 mM sodium (Na) ascorbate.
(§3) The IC50 values (mean, standard deviation, standard error of the mean, geometric mean and 95% confidence interval) were determined using a four-parameter curve-fit using GraphPad Prism 7.0 (GraphPad, La Jolla, Calif., USA) and represent the compound concentration plotted against the calculated ratio of 665 nm and 615 nm.

full-length human PHD2 = target: T2, full-length human PHD2 (Homo sapiens, UniProt Q9GZT9); test: TR-FRET assay for PHD enzymes, PHD2; details: read-out: PHD2 IC5 0
T2 construct: The PHD2 construct contained amino acids 1 to 426 of PHD2; His tag (N, cleaved yes); TEV protease cleavage site (N, cleaved yes); host or cells: Sf9 insect cells (baculovirus)
Method: as §1, §2, §3

full-length human PHD3 = target: T3, full-length human PHD3 (Homo sapiens, UniProt Q9H6Z9); test: TR-FRET assay for PHD enzymes, PHD3
T3 construct: 6-His (N); purchased Active Motif (Carlsbad, Calif., USA) 81033; host or cells: E. coli
Text: as §1
Recombinant human PHD3 protein (molecular weight 31.1 kDa) was purchased from Active Motif (Carlsbad, Calif., USA). It was expressed in E. coli as the full-length protein (NCBI accession number NP_071356.1) with an N-terminal 6-His tag (catalog #81033, Lot #24417001).
as §2, §3

T3 sequence (Q9H6Z9 whole entry): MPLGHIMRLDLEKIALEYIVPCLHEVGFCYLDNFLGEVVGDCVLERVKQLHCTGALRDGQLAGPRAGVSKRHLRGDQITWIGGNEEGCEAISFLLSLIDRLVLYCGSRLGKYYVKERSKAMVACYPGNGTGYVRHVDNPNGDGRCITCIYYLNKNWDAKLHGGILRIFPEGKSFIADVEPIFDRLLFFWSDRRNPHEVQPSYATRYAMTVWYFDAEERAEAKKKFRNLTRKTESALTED
T1 sequence (Q96KS0 whole entry): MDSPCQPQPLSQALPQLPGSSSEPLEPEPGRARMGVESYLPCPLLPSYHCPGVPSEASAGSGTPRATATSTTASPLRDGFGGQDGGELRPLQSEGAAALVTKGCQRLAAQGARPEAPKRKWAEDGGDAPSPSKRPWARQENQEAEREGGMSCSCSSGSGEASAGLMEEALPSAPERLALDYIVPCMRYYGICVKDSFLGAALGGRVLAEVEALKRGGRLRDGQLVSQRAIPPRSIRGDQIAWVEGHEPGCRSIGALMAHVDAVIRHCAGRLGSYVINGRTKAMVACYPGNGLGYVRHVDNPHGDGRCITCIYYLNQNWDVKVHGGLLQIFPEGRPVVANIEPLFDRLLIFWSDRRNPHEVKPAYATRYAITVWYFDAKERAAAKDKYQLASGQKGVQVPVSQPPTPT
T2 sequence (Q9GZT9 whole entry, the tested form may be a part): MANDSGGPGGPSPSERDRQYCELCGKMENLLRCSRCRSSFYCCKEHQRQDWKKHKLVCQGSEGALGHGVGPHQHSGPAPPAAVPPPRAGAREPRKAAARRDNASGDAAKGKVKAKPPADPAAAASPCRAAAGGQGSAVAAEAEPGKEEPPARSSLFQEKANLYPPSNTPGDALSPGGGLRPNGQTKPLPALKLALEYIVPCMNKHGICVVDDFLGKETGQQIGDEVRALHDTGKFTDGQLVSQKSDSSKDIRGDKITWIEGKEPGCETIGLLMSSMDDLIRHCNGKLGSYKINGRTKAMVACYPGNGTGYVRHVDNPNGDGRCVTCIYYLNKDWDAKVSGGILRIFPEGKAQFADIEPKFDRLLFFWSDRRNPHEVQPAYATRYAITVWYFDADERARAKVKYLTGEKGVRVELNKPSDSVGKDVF

Compound	IC50 (full-length human PHD1)	IC50 (full-length human PHD2)	IC50 (full-length human PHD3)
O=C(O)c1ccc(-n2ncc(-c3ccc(Cl)nc3)c2O)nc1 [Compound 17, 6-(4-(6-chloropyridin-3-yl)-5-hydroxy-1H-pyrazol-1-yl)nicotinic acid]	< 100 nM	< 100 nM	< 100 nM
Cc1cc(-n2nc(C)c(-c3ccc(C#N)cc3)c2O)ncc1C(=O)O [Compound 18, 6-(4-(4-cyanophenyl)-5-hydroxy-3-methyl-1H-pyrazol-1-yl)-4-methylnicotinic acid]	< 100 nM	< 100 nM	< 100 nM
N#Cc1ccc(-c2cnn(-c3ccc(C(=O)O)cn3)c2O)c(O)c1 [Compound 21, 6-(4-(4-cyano-2-hydroxyphenyl)-5-hydroxy-1H-pyrazol-1-yl)nicotinic acid]	< 100 nM	< 100 nM	100 to 1000 nM
Cc1cc(C#N)ccc1-c1c(C)nn(-c2ccc(C(=O)O)cn2)c1O [Compound 24, 6-(4-(4-cyano-2-methylphenyl)-5-hydroxy-3-methyl-1H-pyrazol-1-yl)nicotinic acid]	< 100 nM	< 100 nM	< 100 nM
Cc1nn(-c2ccc(C(=O)O)cn2)c(O)c1-c1ccc(Cl)c(F)c1 [Compound 26, 6-(4-(4-chloro-3-fluorophenyl)-5-hydroxy-3-methyl-1H-pyrazol-1-yl)nicotinic acid]	< 100 nM	< 100 nM	100 to 1000 nM
Cc1nn(-c2ccc(C(=O)O)cn2)c(O)c1-c1ccc(Cl)cc1F [Compound 28, 6-(4-(4-chloro-2-fluorophenyl)-5-hydroxy-3-methyl-1H-pyrazol-1-yl)nicotinic acid]	< 100 nM	100 to 1000 nM	100 to 1000 nM
COc1cc(-c2cnn(-c3ccc(C(=O)OC(C)(C)C)cn3)c2O)ccn1 [Compound 35, Tert-butyl 6-(5-hydroxy-4-(2-methoxypyridin-4-yl)-1H-pyrazol-1-yl)nicotinate]	< 100 nM	< 100 nM	< 100 nM
CCOC(=O)c1ccc(-n2ncc(-c3ccc(C#N)cc3)c2O)nc1 [Compound 36, Ethyl 6-(4-(4-cyanophenyl)-5-hydroxy-1H-pyrazol-1-yl)nicotinate]	< 100 nM	< 100 nM	< 100 nM
CC(C)OC(=O)c1ccc(-n2ncc(-c3ccc(C#N)cc3)c2O)nc1 [Compound 37, Isopropyl 6-(4-(4-cyanophenyl)-5-hydroxy-1H-pyrazol-1-yl)nicotinate]	< 100 nM	< 100 nM	< 100 nM
CC(C)(C)OC(=O)c1ccc(-n2ncc(-c3ccc(C#N)cc3)c2O)nc1 [Compound 38, Tert-butyl 6-(4-(4-cyanophenyl)-5-hydroxy-1H-pyrazol-1-yl)nicotinate]	< 100 nM	< 100 nM	1000 to 10000 nM
O=C(O)c1ccc(-n2ncc(-c3ccc(Cl)cc3O)c2O)nc1 [Compound 39, 6-(4-(4-chloro-2-hydroxyphenyl)-5-hydroxy-1H-pyrazol-1-yl)nicotinic acid]	100 to 1000 nM	< 100 nM	1000 to 10000 nM
